Reference: the supplement of paper PMC10627819

Columns and labels:
Assay in all cases: Bliss interaction score (quartile over a dose matrix) (fitness difference); higher = more antagonism (negative = synergy)
S. aureus DSM 20231 = test system: S. aureus DSM 20231
Method in brief: (§1)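 Fitness here means normalised growth, inferred for single drugs from the combination data. Growth was OD595 at entry into stationary phase, divided by the plate's robust no-drug mean and capped at 1. The Bliss score is observed minus expected fitness, with the expectation being the product, and its quartiles span technical, biological and donor/recipient replicates.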

S. aureus Newman = test system: S. aureus Newman
Method in brief: as §1

S. pneumoniae D39V = test system: S. pneumoniae D39V
Method in brief: as §1

B. subtilis 168 = test system: B. subtilis 168
Method in brief: as §1
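Also: first quartile when negative (synergy) and third quartile when positive (antagonism).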

CCCCCCCCCC(=O)N[C@@H](Cc1c[nH]c2ccccc12)C(=O)N[C@H](CC(N)=O)C(=O)N[C@@H](CC(=O)O)C(=O)N[C@@H]1C(=O)NCC(=O)N[C@@H](CCCN)C(=O)N[C@@H](CC(=O)O)C(=O)N[C@H](C)C(=O)N[C@@H](CC(=O)O)C(=O)NCC(=O)N[C@H](CO)C(=O)N[C@@H]([C@H](C)CC(=O)O)C(=O)N[C@@H](CC(=O)c2ccccc2N)C(=O)O[C@@H]1C [Daptomycin] + CC[C@H]1OC(=O)[C@H](C)[C@@H](O[C@H]2C[C@@](C)(OC)[C@@H](O)[C@H](C)O2)[C@H](C)[C@@H](O[C@@H]2O[C@H](C)C[C@H](N(C)C)[C@H]2O)[C@](C)(O)C[C@@H](C)C(=O)[C@H](C)[C@@H](O)[C@]1(C)O [Erythromycin]
Bliss interaction score (S. aureus DSM 20231): 0.0418
Bliss interaction score (S. aureus Newman): -0.034
Bliss interaction score (S. pneumoniae D39V): -0.0815
Bliss interaction score (B. subtilis 168): 0.102

CCCCCCCCCC(=O)N[C@@H](Cc1c[nH]c2ccccc12)C(=O)N[C@H](CC(N)=O)C(=O)N[C@@H](CC(=O)O)C(=O)N[C@@H]1C(=O)NCC(=O)N[C@@H](CCCN)C(=O)N[C@@H](CC(=O)O)C(=O)N[C@H](C)C(=O)N[C@@H](CC(=O)O)C(=O)NCC(=O)N[C@H](CO)C(=O)N[C@@H]([C@H](C)CC(=O)O)C(=O)N[C@@H](CC(=O)c2ccccc2N)C(=O)O[C@@H]1C [Daptomycin] + CN[C@H](CC(C)C)C(=O)N[C@H]1C(=O)N[C@@H](CC(N)=O)C(=O)N[C@H]2C(=O)N[C@H]3C(=O)N[C@H](C(=O)N[C@H](C(=O)O)c4cc(O)cc(O)c4-c4cc3ccc4O)[C@H](O[C@H]3C[C@](C)(N)[C@@H](O)[C@H](C)O3)c3ccc(c(Cl)c3)Oc3cc2cc(c3O[C@@H]2O[C@H](CO)[C@@H](O)[C@H](O)[C@H]2O[C@H]2C[C@](C)(NCc3ccc(-c4ccc(Cl)cc4)cc3)[C@@H](O)[C@H](C)O2)Oc2ccc(cc2Cl)[C@H]1O [Oritavancin]
Bliss interaction score (S. aureus DSM 20231): 0.0891
Bliss interaction score (S. aureus Newman): 0.0913
Bliss interaction score (S. pneumoniae D39V): 0.0853
Bliss interaction score (B. subtilis 168): -0.0305

CCCCCCCCCC(=O)N[C@@H](Cc1c[nH]c2ccccc12)C(=O)N[C@H](CC(N)=O)C(=O)N[C@@H](CC(=O)O)C(=O)N[C@@H]1C(=O)NCC(=O)N[C@@H](CCCN)C(=O)N[C@@H](CC(=O)O)C(=O)N[C@H](C)C(=O)N[C@@H](CC(=O)O)C(=O)NCC(=O)N[C@H](CO)C(=O)N[C@@H]([C@H](C)CC(=O)O)C(=O)N[C@@H](CC(=O)c2ccccc2N)C(=O)O[C@@H]1C [Daptomycin] + CO[C@@]12[C@H](COC(N)=O)C3=C(C(=O)C(C)=C(N)C3=O)N1C[C@@H]1N[C@@H]12 [MitomycinC]
Bliss interaction score (S. aureus DSM 20231): 0.0739
Bliss interaction score (S. aureus Newman): -0.0398
Bliss interaction score (S. pneumoniae D39V): -0.0769
Bliss interaction score (B. subtilis 168): 0.0997

CCCCCCCCCC(=O)N[C@@H](Cc1c[nH]c2ccccc12)C(=O)N[C@H](CC(N)=O)C(=O)N[C@@H](CC(=O)O)C(=O)N[C@@H]1C(=O)NCC(=O)N[C@@H](CCCN)C(=O)N[C@@H](CC(=O)O)C(=O)N[C@H](C)C(=O)N[C@@H](CC(=O)O)C(=O)NCC(=O)N[C@H](CO)C(=O)N[C@@H]([C@H](C)CC(=O)O)C(=O)N[C@@H](CC(=O)c2ccccc2N)C(=O)O[C@@H]1C [Daptomycin] + Oc1cc(Cl)ccc1Oc1ccc(Cl)cc1Cl [Triclosan]
Bliss interaction score (S. aureus DSM 20231): 0.0576
Bliss interaction score (S. aureus Newman): -0.0264
Bliss interaction score (S. pneumoniae D39V): 0.0768
Bliss interaction score (B. subtilis 168): -0.0488

C[C@H]1COc2c(N3CCN(C)CC3)c(F)cc3c(=O)c(C(=O)O)cn1c23 [Levofloxacin] + CC1(C)S[C@@H]2[C@H](NC(=O)Cc3ccccc3)C(=O)N2[C@H]1C(=O)O [PenicillinG]
Bliss interaction score (S. aureus DSM 20231): 0.0432
Bliss interaction score (S. aureus Newman): -0.0602
Bliss interaction score (S. pneumoniae D39V): -0.103
Bliss interaction score (B. subtilis 168): 0.0528

C[C@H]1COc2c(N3CCN(C)CC3)c(F)cc3c(=O)c(C(=O)O)cn1c23 [Levofloxacin] + CCCCCCCCCC(=O)N[C@@H]1[C@H]([C@@H]([C@H](O[C@H]1OC2=C3C=C4C=C2OC5=C(C=C(C=C5)[C@H]([C@H]6C(=O)N[C@@H](C7=C(C(=CC(=C7)O)OC8[C@H]([C@H]([C@@H]([C@H](O8)CO)O)O)O)C9=C(C=CC(=C9)[C@H](C(=O)N6)NC(=O)[C@@H]4NC(=O)[C@@H]1C2=CC(=CC(=C2)OC2=C(C=CC(=C2)[C@H](C(=O)N[C@H](CC2=CC(=C(O3)C=C2)Cl)C(=O)N1)N)O)O)O)C(=O)O)O[C@H]1[C@@H]([C@H]([C@@H]([C@H](O1)CO)O)O)NC(=O)C)Cl)CO)O)O [Teicoplanin]
Bliss interaction score (S. aureus DSM 20231; main component drawn): -0.0673
Bliss interaction score (S. aureus Newman; main component drawn): -0.0552
Bliss interaction score (S. pneumoniae D39V; main component drawn): -0.0681
Bliss interaction score (B. subtilis 168; main component drawn): 0.0334

C[C@H]1COc2c(N3CCN(C)CC3)c(F)cc3c(=O)c(C(=O)O)cn1c23 [Levofloxacin] + CC[C@H]1OC(=O)[C@H](C)C(=O)[C@H](C)[C@@H](O[C@@H]2O[C@H](C)C[C@H](N(C)C)[C@H]2O)[C@](C)(OC)C[C@@H](C)C(=O)[C@H](C)[C@H]2N(CCCCn3cnc(-c4cccnc4)c3)C(=O)O[C@]12C [Telithromycin]
Bliss interaction score (S. aureus DSM 20231): 0.0361
Bliss interaction score (S. aureus Newman): 0.0408
Bliss interaction score (S. pneumoniae D39V): 0.0737
Bliss interaction score (B. subtilis 168): 0.0654

C[C@H]1COc2c(N3CCN(C)CC3)c(F)cc3c(=O)c(C(=O)O)cn1c23 [Levofloxacin] + CN[C@H](CC(C)C)C(=O)N[C@H]1C(=O)N[C@@H](CC(N)=O)C(=O)N[C@H]2C(=O)N[C@H]3C(=O)N[C@H](C(=O)N[C@H](C(=O)O)c4cc(O)cc(O)c4-c4cc3ccc4O)[C@H](O[C@H]3C[C@](C)(N)[C@@H](O)[C@H](C)O3)c3ccc(c(Cl)c3)Oc3cc2cc(c3O[C@@H]2O[C@H](CO)[C@@H](O)[C@H](O)[C@H]2O[C@H]2C[C@](C)(NCc3ccc(-c4ccc(Cl)cc4)cc3)[C@@H](O)[C@H](C)O2)Oc2ccc(cc2Cl)[C@H]1O [Oritavancin]
Bliss interaction score (S. aureus DSM 20231): 0.0291
Bliss interaction score (S. aureus Newman): 0.0454
Bliss interaction score (S. pneumoniae D39V): -0.0616
Bliss interaction score (B. subtilis 168): 0.031

C[C@H]1COc2c(N3CCN(C)CC3)c(F)cc3c(=O)c(C(=O)O)cn1c23 [Levofloxacin] + CO[C@@]12[C@H](COC(N)=O)C3=C(C(=O)C(C)=C(N)C3=O)N1C[C@@H]1N[C@@H]12 [MitomycinC]
Bliss interaction score (S. aureus DSM 20231): 0.0462
Bliss interaction score (S. aureus Newman): 0.0429
Bliss interaction score (S. pneumoniae D39V): -0.0941
Bliss interaction score (B. subtilis 168): 0.0422

C[C@H]1COc2c(N3CCN(C)CC3)c(F)cc3c(=O)c(C(=O)O)cn1c23 [Levofloxacin] + Oc1cc(Cl)ccc1Oc1ccc(Cl)cc1Cl [Triclosan]
Bliss interaction score (S. aureus DSM 20231): -0.0551
Bliss interaction score (S. aureus Newman): -0.0181
Bliss interaction score (S. pneumoniae D39V): 0.054
Bliss interaction score (B. subtilis 168): 0.0373

CN(C)C(=O)C(CCN1CCC(O)(c2ccc(Cl)cc2)CC1)(c1ccccc1)c1ccccc1 [Loperamide] + CC1(C)S[C@@H]2[C@H](NC(=O)Cc3ccccc3)C(=O)N2[C@H]1C(=O)O [PenicillinG]
Bliss interaction score (S. aureus DSM 20231): -0.14
Bliss interaction score (S. aureus Newman): -0.068
Bliss interaction score (S. pneumoniae D39V): -0.249
Bliss interaction score (B. subtilis 168): 0.0464
